Results taken from PubChem BioAssay AID1259407 (Chemical Carcinogenesis Research Information System (CCRIS), 2018).
Activity calls are given as the source filed them. How the calls were made is not given here.

Tested on: CCRIS mutagenicity, Ames/micronucleus/aberration tests
Assay: CCRIS mutagenicity studies
[1] = Test System: AMES SALMONELLA TYPHIMURIUM, Strain/Indicator: TA98, Metabolic Activation: HAMSTER, LIVER, S-9, AROCLOR 1254 (10%), Method: PREINCUBATION
[2] = Test System: AMES SALMONELLA TYPHIMURIUM, Strain/Indicator: TA98, Metabolic Activation: NONE, Method: PREINCUBATION
[3] = Test System: AMES SALMONELLA TYPHIMURIUM, Strain/Indicator: TA98, Metabolic Activation: RAT, LIVER, S-9, AROCLOR 1254 (10%), Method: PREINCUBATION
[4] = Test System: AMES SALMONELLA TYPHIMURIUM, Strain/Indicator: TA100, Metabolic Activation: HAMSTER, LIVER, S-9, AROCLOR 1254 (10%), Method: PREINCUBATION
[5] = Test System: AMES SALMONELLA TYPHIMURIUM, Strain/Indicator: TA100, Metabolic Activation: NONE, Method: PREINCUBATION
[6] = Test System: AMES SALMONELLA TYPHIMURIUM, Strain/Indicator: TA100, Metabolic Activation: RAT, LIVER, S-9, AROCLOR 1254 (10%), Method: PREINCUBATION
[7] = Test System: AMES SALMONELLA TYPHIMURIUM, Strain/Indicator: TA1535, Metabolic Activation: HAMSTER, LIVER, S-9, AROCLOR 1254 (10%), Method: PREINCUBATION
[8] = Test System: AMES SALMONELLA TYPHIMURIUM, Strain/Indicator: TA1535, Metabolic Activation: NONE, Method: PREINCUBATION
[9] = Test System: AMES SALMONELLA TYPHIMURIUM, Strain/Indicator: TA1535, Metabolic Activation: RAT, LIVER, S-9, AROCLOR 1254 (10%), Method: PREINCUBATION
[10] = Test System: AMES SALMONELLA TYPHIMURIUM, Strain/Indicator: TA98, Metabolic Activation: NONE, Method: STANDARD PLATE
[11] = Test System: AMES SALMONELLA TYPHIMURIUM, Strain/Indicator: TA98, Metabolic Activation: RAT, LIVER, S-9, AROCLOR 1254, Method: STANDARD PLATE

Measured: mutagenic call

NC1CCC(CC2CCC(N)CC2)CC1 (stereo not drawn)
inactive: [1] inactive; negative | [2] inactive; negative | [3] inactive; negative | [4] inactive; negative | [5] inactive; negative | [6] inactive; negative | [7] inactive; negative | [8] inactive; negative | [9] inactive; negative | Test System: AMES SALMONELLA TYPHIMURIUM, Strain/Indicator: TA1537, Metabolic Activation: HAMSTER, LIVER, S-9, AROCLOR 1254 (10%), Method: PREINCUBATION inactive; negative | Test System: AMES SALMONELLA TYPHIMURIUM, Strain/Indicator: TA1537, Metabolic Activation: NONE, Method: PREINCUBATION inactive; negative | Test System: AMES SALMONELLA TYPHIMURIUM, Strain/Indicator: TA1537, Metabolic Activation: RAT, LIVER, S-9, AROCLOR 1254 (10%), Method: PREINCUBATION inactive; negative

O=[N+]([O-])c1ccc(Sc2ccccc2)cc1
inactive: Test System: AMES SALMONELLA TYPHIMURIUM, Strain/Indicator: TA98(NR), Metabolic Activation: NONE, Method: STANDARD PLATE inactive; negative
active: Test System: AMES SALMONELLA TYPHIMURIUM, Strain/Indicator: TA98(1,8-DNP6), Metabolic Activation: NONE, Method: STANDARD PLATE active; positive | [10] active; positive | [11] active; positive

CCC(=O)N(c1ccc(Cl)c(Cl)c1)[C@@H]1CCC[C@H]1N(C)C
inactive: [10] inactive; negative | [11] inactive; negative | Test System: AMES SALMONELLA TYPHIMURIUM, Strain/Indicator: TA100, Metabolic Activation: NONE, Method: STANDARD PLATE inactive; negative | Test System: AMES SALMONELLA TYPHIMURIUM, Strain/Indicator: TA100, Metabolic Activation: RAT, LIVER, S-9, AROCLOR 1254, Method: STANDARD PLATE inactive; negative | Test System: AMES SALMONELLA TYPHIMURIUM, Strain/Indicator: TA1535, Metabolic Activation: NONE, Method: STANDARD PLATE inactive; negative | Test System: AMES SALMONELLA TYPHIMURIUM, Strain/Indicator: TA1535, Metabolic Activation: RAT, LIVER, S-9, AROCLOR 1254, Method: STANDARD PLATE inactive; negative | Test System: AMES SALMONELLA TYPHIMURIUM, Strain/Indicator: TA1537, Metabolic Activation: NONE, Method: STANDARD PLATE inactive; negative | Test System: AMES SALMONELLA TYPHIMURIUM, Strain/Indicator: TA1537, Metabolic Activation: RAT, LIVER, S-9, AROCLOR 1254, Method: STANDARD PLATE inactive; negative | Test System: AMES SALMONELLA TYPHIMURIUM, Strain/Indicator: TA1538, Metabolic Activation: NONE, Method: STANDARD PLATE inactive; negative | Test System: AMES SALMONELLA TYPHIMURIUM, Strain/Indicator: TA1538, Metabolic Activation: RAT, LIVER, S-9, AROCLOR 1254, Method: STANDARD PLATE inactive; negative | Test System: CHINESE HAMSTER OVARY, Strain/Indicator: CHO-K1-BH4 (HGPRT), Metabolic Activation: NONE inactive; negative | Test System: CHINESE HAMSTER V-79, Strain/Indicator: V-79/6-THIOGUANINE, Metabolic Activation: NONE inactive; negative | Test System: CHINESE HAMSTER V-79, Strain/Indicator: V-79/6-THIOGUANINE, Metabolic Activation: RAT, LIVER, S-9, AROCLOR 1254 inactive; negative | Test System: UDS RODENT HEPATOCYTES, Strain/Indicator: THY INCORP, Metabolic Activation: NONE inactive; negative

[Ga]#[As]
inactive: Test System: AMES SALMONELLA TYPHIMURIUM, Strain/Indicator: TA97, Metabolic Activation: HAMSTER, LIVER, S-9, AROCLOR 1254 (10 OR 30%), Method: PREINCUBATION inactive; negative | Test System: AMES SALMONELLA TYPHIMURIUM, Strain/Indicator: TA97, Metabolic Activation: NONE, Method: PREINCUBATION inactive; negative | Test System: AMES SALMONELLA TYPHIMURIUM, Strain/Indicator: TA97, Metabolic Activation: RAT, LIVER, S-9, AROCLOR 1254 (10 OR 30%), Method: PREINCUBATION inactive; negative | [1] inactive; negative | Test System: AMES SALMONELLA TYPHIMURIUM, Strain/Indicator: TA98, Metabolic Activation: HAMSTER, LIVER, S-9, AROCLOR 1254 (30%), Method: PREINCUBATION inactive; negative | [2] inactive; negative | [3] inactive; negative | Test System: AMES SALMONELLA TYPHIMURIUM, Strain/Indicator: TA98, Metabolic Activation: RAT, LIVER, S-9, AROCLOR 1254 (30%), Method: PREINCUBATION inactive; negative | [4] inactive; negative | Test System: AMES SALMONELLA TYPHIMURIUM, Strain/Indicator: TA100, Metabolic Activation: HAMSTER, LIVER, S-9, AROCLOR 1254 (30%), Method: PREINCUBATION inactive; negative | [5] inactive; negative | [6] inactive; negative | Test System: AMES SALMONELLA TYPHIMURIUM, Strain/Indicator: TA100, Metabolic Activation: RAT, LIVER, S-9, AROCLOR 1254 (30%), Method: PREINCUBATION inactive; negative | Test System: AMES SALMONELLA TYPHIMURIUM, Strain/Indicator: TA102, Metabolic Activation: HAMSTER, LIVER, S-9, AROCLOR 1254 (5 OR 10%), Method: PREINCUBATION inactive; negative | Test System: AMES SALMONELLA TYPHIMURIUM, Strain/Indicator: TA102, Metabolic Activation: HAMSTER, LIVER, S-9, AROCLOR 1254 (30%), Method: PREINCUBATION inactive; negative | Test System: AMES SALMONELLA TYPHIMURIUM, Strain/Indicator: TA102, Metabolic Activation: NONE, Method: PREINCUBATION inactive; negative | Test System: AMES SALMONELLA TYPHIMURIUM, Strain/Indicator: TA102, Metabolic Activation: RAT, LIVER, S-9, AROCLOR 1254 (10%), Method: PREINCUBATION inactive; negative | Test System: AMES SALMONELLA TYPHIMURIUM, Strain/Indicator: TA102, Metabolic Activation: RAT, LIVER, S-9, AROCLOR 1254 (30%), Method: PREINCUBATION inactive; negative | [7] inactive; negative | Test System: AMES SALMONELLA TYPHIMURIUM, Strain/Indicator: TA1535, Metabolic Activation: HAMSTER, LIVER, S-9, AROCLOR 1254 (30%), Method: PREINCUBATION inactive; negative | [8] inactive; negative | [9] inactive; negative | Test System: AMES SALMONELLA TYPHIMURIUM, Strain/Indicator: TA1535, Metabolic Activation: RAT, LIVER, S-9, AROCLOR 1254 (30%), Method: PREINCUBATION inactive; negative
